In assay [1] the target is Serotonin receptor 2a and 2c (5HT2A and 5HT2C) (Rattus norvegicus) (UniProt P08909+P14842). As to the kind of experiment: Relative affinities for rat 5-HT2C receptors and 5-HT2A receptors. The assay is classed as protein assay.
The target in assay [2] is T1, 5-hydroxytryptamine receptor 2C (Rattus norvegicus, UniProt P08909).
T1 sequence (P08909 whole entry): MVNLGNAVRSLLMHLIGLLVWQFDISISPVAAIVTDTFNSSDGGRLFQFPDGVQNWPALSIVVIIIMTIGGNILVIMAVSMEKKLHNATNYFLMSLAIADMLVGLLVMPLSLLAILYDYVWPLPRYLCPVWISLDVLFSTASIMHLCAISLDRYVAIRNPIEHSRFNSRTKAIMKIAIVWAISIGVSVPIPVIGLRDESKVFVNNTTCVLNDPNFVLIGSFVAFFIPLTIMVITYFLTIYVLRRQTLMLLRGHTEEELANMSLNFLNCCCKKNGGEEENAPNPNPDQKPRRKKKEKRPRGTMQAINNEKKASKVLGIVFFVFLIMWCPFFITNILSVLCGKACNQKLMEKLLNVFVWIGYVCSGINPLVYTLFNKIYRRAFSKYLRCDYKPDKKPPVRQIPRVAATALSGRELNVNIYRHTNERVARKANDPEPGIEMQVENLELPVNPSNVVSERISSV
Put plainly: Displacement of [3H]mesulergine from A9 cells stably expressing rat 5-hydroxytryptamine 2C receptor. Format: cell-based. Background: Displacement assays read how much labelled ligand stays bound in the presence of the test substance.

Assay [3] has as its target 5-hydroxytryptamine receptor 2A (Rattus norvegicus, UniProt P14842). Put plainly: Displacement of [3H]ketanserin from NIH3T3 cells stably expressing rat 5-hydroxytryptamine 2A receptor. Format: cell-based.

The Ki is the dissociation constant of the complex between target and ligand, obtained from inhibition or displacement. Higher therefore signals weaker binding.

Sequence of 5-hydroxytryptamine receptor 2A (P14842 whole entry): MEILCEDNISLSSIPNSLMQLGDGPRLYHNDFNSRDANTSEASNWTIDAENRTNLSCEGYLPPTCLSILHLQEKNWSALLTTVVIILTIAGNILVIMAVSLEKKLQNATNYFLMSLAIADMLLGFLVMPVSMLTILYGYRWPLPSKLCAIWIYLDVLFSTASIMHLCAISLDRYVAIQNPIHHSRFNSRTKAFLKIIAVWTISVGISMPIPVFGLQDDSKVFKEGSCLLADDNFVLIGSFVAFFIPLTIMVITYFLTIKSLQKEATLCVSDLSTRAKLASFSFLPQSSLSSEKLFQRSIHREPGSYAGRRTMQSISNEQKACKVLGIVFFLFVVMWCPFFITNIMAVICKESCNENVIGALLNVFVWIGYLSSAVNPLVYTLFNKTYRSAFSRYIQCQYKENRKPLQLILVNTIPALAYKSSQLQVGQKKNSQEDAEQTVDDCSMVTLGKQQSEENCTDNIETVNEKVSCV
Sequence of Serotonin receptor 2a and 2c (5HT2A and 5HT2C) (Rattus norvegicus) (P14842 whole entry, looked up, one chain of several): as the sequence (P14842 whole entry) above

In assay [1], `COc1cc(CCCc2ccccc2)ccc1CC(C)N` (configuration not stated) came in with a Selectivity of 11.1. Further, the figures for the inhibitory constant (Ki) in assay [2] and in assay [3] were 89 nM and 8 nM, respectively.

For `COc1cc(CC(C)N)cc(OC)c1CCCc1ccccc1` (configuration not stated), the Selectivity in assay [1] turned out to be 10. Besides, the inhibition constant Ki in assay [2] was 40 nM; in assay [3], 4 nM.

Consider `COc1ccc(OC)c(CCN)c1`, for which the values for the Ki in assay [2] and in assay [3] were 5520 nM and 3000 nM, respectively.

Consider `COc1cc(CCCc2ccccc2)c(OC)cc1CCN`, for which the Selectivity in assay [1] came out at 0.2. Further, the inhibition constant Ki stood at 28 nM in assay [2] and 150 nM in assay [3].

With `COc1cc(CCCc2ccccc2)cc(OC)c1CC(C)N` (configuration not stated), the Selectivity in assay [1] worked out at 13. Further, the Ki in assay [2] was determined as 39 nM; in assay [3], 3 nM.

In the case of `COc1cccc(CC(C)N)c1OC` (configuration not stated), the values for the inhibition constant Ki in assay [2] and in assay [3] were above 10000 nM and 4280 nM, respectively.

In assay [1], `NCCc1ccc(CCCc2ccccc2)cc1` showed a Selectivity of 8.9. Further, the inhibition constant (Ki) amounted to 525 nM in assay [2] and 60 nM in assay [3].

With `COc1c(CCCc2ccccc2)ccc(CC(C)N)c1OC` (configuration not stated), the Selectivity in assay [1] turned out to be 19.8. For the same molecule, the Ki in assay [2] turned out to be 79 nM; in assay [3], 4 nM.

`COc1cc(CCCCc2ccccc2)c(OC)cc1CCN` showed a Selectivity in assay [1] of 0.2. In addition, the Ki stood at 25 nM in assay [2] and 115 nM in assay [3].

`COc1cc(CC(C)N)ccc1CCCc1ccccc1` (configuration not stated): the Selectivity in assay [1] worked out at 7.9. For the same molecule, the Ki in assay [2] worked out at 135 nM; in assay [3], 17 nM.

In the case of `CC(N)Cc1ccc(CCCc2ccccc2)cc1` (configuration not stated), in assay [1], the Selectivity stood at 6.8. Also, the Ki in assay [2] turned out to be 530 nM; in assay [3], 78 nM.

In the case of `COc1cc(C[C@@H](C)N)cc(OC)c1`, the inhibition constant (Ki) in assay [2] and in assay [3] was above 10000 nM each time.

For the molecule `COc1cc(CC(C)N)cc(OC)c1Br` (configuration not stated), the Ki was determined as 570 nM in assay [2] and 210 nM in assay [3].

Regarding `COc1cccc(OC)c1CC(C)N` (configuration not stated), the Ki in assay [2] and in assay [3] was above 10000 nM in each case.

`COc1cc(CC(C)N)c(OC)cc1CCc1ccccc1` (configuration not stated): in assay [1], the Selectivity amounted to 1.5. Also, the inhibition constant (Ki) in assay [2] was 140 nM; in assay [3], 95 nM.

Turning to `COc1ccccc1CC(C)N` (configuration not stated), the inhibition constant Ki in assay [2] and in assay [3] was above 10000 nM in each case.

For `COc1cc(CC(C)N)c(OC)cc1CCCCc1ccccc1` (configuration not stated), the Selectivity in assay [1] turned out to be 0.8. In addition, the inhibition constant Ki in assay [2] is 6 nM; in assay [3], 8 nM.

Take `COc1cccc(CC(C)N)c1` (configuration not stated): the Ki in assay [2] and in assay [3] was above 10000 nM throughout.

Turning to `COc1cc(CC(C)N)c(OC)cc1CCCc1ccc(Cl)cc1` (configuration not stated), in assay [1], the Selectivity is 1.3. Besides, the Ki came out at 16 nM in assay [2] and 12 nM in assay [3].

In the case of `COc1ccc(OC)c(CC(C)N)c1` (configuration not stated), the Ki in assay [2] was above 10000 nM; in assay [3], 4720 nM.

In turn, `COc1cc(CCc2ccccc2)c(OC)cc1CCN` came in with a Selectivity in assay [1] of 2. The Ki in assay [2] amounted to 76 nM; in assay [3], 37 nM.

For `COc1cc(CC(C)N)c(OC)cc1CCCc1ccccc1` (configuration not stated), in assay [1], the Selectivity came to 1.7. The Ki in assay [2] came to 50 nM; in assay [3] it was 30 nM.

In assay [1], `COc1ccc(CCCc2cc(OC)c(CC(C)N)cc2OC)cc1` (configuration not stated) displayed a Selectivity of 0.9. The Ki in assay [2] came out at 24 nM; in assay [3], 28 nM.

For the molecule `COc1cc(CCN)c(OC)cc1Br`, the Ki in assay [3] was 16 nM.

The values above are taken from ChEMBL document CHEMBL1133613, “1-[4-(3-Phenylalkyl)phenyl]-2-aminopropanes as 5-HT(2A) partial agonists” (J Med Chem, 2000).
